Our source for the IC50 values is patent publication US20220144823A1, “PYRAZOLOPYRIDINE DERIVATIVES AS INHIBITORS OF PASK” (Galapagos NV, priority 2019, published 2022).

Test [1] deals with T1, human PASK (Homo sapiens, UniProt Q96RG2).
T1 construct: purchased ThermoFisher Scientific PR7013A
The test is described as follows: ADP-Glo kinase assay. The settings on record: ADPGlo PASK kinase assay, 25 μM ATP, ZIPtide 25 μM. Type of test: biochemical. A digest of the protocol:
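Human recombinant PASK phosphorylating ZIPtide peptide with ATP, 120 min at RT; compounds in 10-point 1/5 dilution series, 1% DMSO final. ADP formed measured by ADP-Glo luminescence after ATP depletion; percent inhibition fitted to dose-response curves for averaged IC50.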
A general note: ADP-Glo first removes unused ATP, then detects ADP through luciferase.

Test [2] concerns the target T2, autophosphorylation of PASK at position Thr307 in Hek293 cells overexpressing PASK (Homo sapiens, UniProt Q96RG2).
T2 construct: expressed in transfected cells; host or cells: Hek293
The test can be described thus: PASK autophosphorylation ELISA assay. Type of test: cell-based. The conditions noted are these: 24 h, ELISA readout. A digest of the protocol:
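Hek293 cells transiently transfected with full-length wild-type PASK-FLAG, treated 24 h in serum-free DMEM with an 8-point 1/3 dilution series from 30 μM final (0.3% DMSO). Lysates captured on anti-FLAG ELISA plates, Thr307 phosphorylation detected with phospho-Akt substrate (RXXS*/T*) antibody and HRP chemiluminescence; IC50 from percentage inhibition curves.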
On the technique in general: An ELISA detects its analyte on a solid surface through an enzyme-linked reagent.

T2 sequence (Q96RG2 with tags, fused parts or gaps): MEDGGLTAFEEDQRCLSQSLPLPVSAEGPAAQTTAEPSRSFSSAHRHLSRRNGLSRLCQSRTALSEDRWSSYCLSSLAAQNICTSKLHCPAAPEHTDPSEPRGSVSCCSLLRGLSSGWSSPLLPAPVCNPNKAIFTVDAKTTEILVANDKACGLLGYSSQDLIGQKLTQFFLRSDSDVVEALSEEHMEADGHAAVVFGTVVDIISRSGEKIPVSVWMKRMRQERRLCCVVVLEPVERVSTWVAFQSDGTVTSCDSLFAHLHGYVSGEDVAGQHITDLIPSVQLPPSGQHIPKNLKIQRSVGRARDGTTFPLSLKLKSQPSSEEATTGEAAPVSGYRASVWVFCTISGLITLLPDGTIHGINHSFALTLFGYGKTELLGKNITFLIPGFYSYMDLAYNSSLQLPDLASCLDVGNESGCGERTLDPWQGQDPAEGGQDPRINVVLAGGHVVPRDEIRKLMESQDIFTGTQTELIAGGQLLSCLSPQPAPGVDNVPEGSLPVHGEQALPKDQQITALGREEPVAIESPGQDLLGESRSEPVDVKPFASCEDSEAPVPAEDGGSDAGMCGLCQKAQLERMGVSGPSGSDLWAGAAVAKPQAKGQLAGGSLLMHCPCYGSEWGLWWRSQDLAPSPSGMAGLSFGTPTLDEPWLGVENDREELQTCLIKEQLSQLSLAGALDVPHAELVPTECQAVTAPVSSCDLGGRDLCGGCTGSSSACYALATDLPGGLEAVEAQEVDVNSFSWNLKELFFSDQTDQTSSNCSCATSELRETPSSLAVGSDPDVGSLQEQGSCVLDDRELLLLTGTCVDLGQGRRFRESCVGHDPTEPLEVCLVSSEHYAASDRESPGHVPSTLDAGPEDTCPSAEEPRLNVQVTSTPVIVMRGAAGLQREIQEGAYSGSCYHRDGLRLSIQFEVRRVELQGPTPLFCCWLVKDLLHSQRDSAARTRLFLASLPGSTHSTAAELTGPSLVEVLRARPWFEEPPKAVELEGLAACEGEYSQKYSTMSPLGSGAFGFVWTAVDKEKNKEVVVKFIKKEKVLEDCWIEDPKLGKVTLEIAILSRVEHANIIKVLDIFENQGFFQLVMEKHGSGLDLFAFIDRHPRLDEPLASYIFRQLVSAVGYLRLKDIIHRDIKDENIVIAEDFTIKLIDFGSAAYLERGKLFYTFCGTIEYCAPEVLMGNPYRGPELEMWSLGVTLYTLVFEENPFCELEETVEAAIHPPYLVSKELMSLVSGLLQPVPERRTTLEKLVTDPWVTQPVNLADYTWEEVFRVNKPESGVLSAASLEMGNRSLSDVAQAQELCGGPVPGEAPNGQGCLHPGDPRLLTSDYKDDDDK
T1 sequence (Q96RG2 whole entry): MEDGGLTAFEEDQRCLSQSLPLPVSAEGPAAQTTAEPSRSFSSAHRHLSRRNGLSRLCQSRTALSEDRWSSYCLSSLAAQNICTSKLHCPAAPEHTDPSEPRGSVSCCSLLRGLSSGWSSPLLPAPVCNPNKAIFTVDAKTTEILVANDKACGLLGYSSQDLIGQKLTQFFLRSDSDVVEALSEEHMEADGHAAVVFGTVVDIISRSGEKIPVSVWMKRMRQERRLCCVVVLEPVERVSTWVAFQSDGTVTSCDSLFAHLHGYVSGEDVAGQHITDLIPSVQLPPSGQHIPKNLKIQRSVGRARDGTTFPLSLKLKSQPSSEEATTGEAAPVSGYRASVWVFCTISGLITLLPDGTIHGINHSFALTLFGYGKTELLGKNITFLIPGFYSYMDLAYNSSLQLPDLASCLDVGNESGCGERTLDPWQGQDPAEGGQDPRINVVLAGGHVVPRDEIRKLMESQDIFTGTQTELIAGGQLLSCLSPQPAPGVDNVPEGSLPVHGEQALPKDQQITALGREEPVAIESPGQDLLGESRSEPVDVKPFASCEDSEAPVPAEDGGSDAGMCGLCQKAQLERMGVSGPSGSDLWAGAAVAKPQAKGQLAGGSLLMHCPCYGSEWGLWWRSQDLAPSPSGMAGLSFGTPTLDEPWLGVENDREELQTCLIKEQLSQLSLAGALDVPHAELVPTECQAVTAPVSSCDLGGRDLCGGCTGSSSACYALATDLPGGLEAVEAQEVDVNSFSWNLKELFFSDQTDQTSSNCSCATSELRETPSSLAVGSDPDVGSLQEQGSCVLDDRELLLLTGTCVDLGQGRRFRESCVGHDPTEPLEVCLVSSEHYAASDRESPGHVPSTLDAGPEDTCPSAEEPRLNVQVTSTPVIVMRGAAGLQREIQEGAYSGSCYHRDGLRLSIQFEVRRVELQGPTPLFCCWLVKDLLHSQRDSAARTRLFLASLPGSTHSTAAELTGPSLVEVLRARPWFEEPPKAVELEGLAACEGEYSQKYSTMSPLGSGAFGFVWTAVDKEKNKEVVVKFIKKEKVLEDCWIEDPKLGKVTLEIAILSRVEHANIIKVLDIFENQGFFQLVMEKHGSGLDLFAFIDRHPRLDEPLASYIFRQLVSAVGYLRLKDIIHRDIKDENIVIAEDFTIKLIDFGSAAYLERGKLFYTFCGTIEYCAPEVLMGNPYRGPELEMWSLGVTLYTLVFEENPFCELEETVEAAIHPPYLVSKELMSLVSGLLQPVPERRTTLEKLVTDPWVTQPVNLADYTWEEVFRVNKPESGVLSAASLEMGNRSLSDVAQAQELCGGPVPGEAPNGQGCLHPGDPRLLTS

`Cc1nn(C(C)C)c(C)c1-c1cnn2ccc(-c3cc(C(=O)O)co3)cc12` [Cpd 18, 5-[3-(1-isopropyl-3,5-dimethyl-pyrazol-4-yl)pyrazolo[1,5-a]pyridin-5-yl]furan-3-carboxylic acid]: the IC50 (in general, the concentration that gives 50% inhibition) was in the range of 0.01 to 10 nM in test [1] and 500 to 1000 nM in test [2].
